Target: T1, mouse Nurr1 receptor (Mus musculus, UniProt Q06219)
T1 construct: a cell line (N2A) endogenously expressing the mouse Nurr1 receptor; host or cells: Neuro-2A (N2A) mouse neuroblastoma cells stably transfected with 8NBRE-luciferase
Test: Evaluation of the in vitro activity on N2A cells (NBRE-luciferase reporter)
Assay type: cell-based
Conditions: N2A (Neuro-2A) cells endogenously expressing Nurr1, stably transfected with 8NBRE-luciferase; products incubated 24 hours; luminescence
Procedure: The activity of the compounds according to the invention was evaluated on a cell line (N2A) endogenously expressing the mouse Nurr1 receptor and stably transfected with the NOT binding response element (NBRE) coupled to the luciferase reporter gene. The EC50 values are between 0.01 and 1000 nM. The assays were carried out according to the procedure described below.
The Neuro-2A cell line comes from a standard commercial source (ATCC). The Neuro-2A clone was obtained, from a spontaneous tumour originating from an A albino mouse strain, by R. J Klebe et al. This Neuro-2A line is subsequently stably transfected with 8NBRE-luciferase. The N2A-8NBRE cells are cultured until confluence in 75 cm^2 culture flasks containing DMEM supplemented with 10% of foetal calf serum, 4.5 g/l of glucose and 0.4 mg/ml of geneticin. After a week of culture, the cells are recovered with 0.25% trypsin for 30 seconds and then resuspended in DMEM without phenol red, containing 4.5 g/l of glucose and 10% of Hyclone delipidized serum, and deposited into transparent-bottom 96-well white plates. The cells are deposited at a rate of 60 000 per well in 75 μl for 24 hours before the addition of the products. The products are applied in 25 μl and incubated for a further 24 hours. On the day of the measurement, an equivalent volume (100 μl) of Steadylite is added to each well and then left for a period of 30 minutes in order to obtain complete cell lysis and maximum signal production. The plates are subsequently measured in a luminescence counter for microplates after having been sealed with an adhesive film. The products are prepared in the form of a stock solution at 10^−2M and then diluted in 100% of DMSO. Each product concentration is prediluted in culture medium before incubation with the cells, thus containing 0.625% final concentration of DMSO.

T1 sequence (Q06219 whole entry): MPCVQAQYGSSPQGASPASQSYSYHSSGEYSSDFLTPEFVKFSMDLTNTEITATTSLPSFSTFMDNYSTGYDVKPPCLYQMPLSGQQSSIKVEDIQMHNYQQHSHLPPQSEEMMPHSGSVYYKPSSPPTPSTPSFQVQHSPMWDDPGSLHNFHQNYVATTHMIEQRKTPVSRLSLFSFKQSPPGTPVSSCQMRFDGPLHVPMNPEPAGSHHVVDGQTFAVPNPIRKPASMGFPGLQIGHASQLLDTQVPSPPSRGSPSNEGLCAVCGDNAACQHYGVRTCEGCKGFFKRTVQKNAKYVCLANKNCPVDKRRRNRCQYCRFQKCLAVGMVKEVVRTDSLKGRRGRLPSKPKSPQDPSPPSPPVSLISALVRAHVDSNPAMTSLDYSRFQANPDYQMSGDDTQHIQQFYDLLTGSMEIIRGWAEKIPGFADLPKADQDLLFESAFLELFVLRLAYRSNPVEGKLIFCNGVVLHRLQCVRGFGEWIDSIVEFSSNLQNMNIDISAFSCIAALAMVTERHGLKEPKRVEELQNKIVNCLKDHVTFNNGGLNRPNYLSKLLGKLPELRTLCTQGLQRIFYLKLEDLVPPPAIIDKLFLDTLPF

Row | SMILES | EC50 [nM]
1 | CN(C)c1ccc2nc(C(=O)N3CCc4ccc(F)cc43)cn2c1 [Compound 17, 2-[(6-Fluoro-2,3-dihydro-1H-indol-1-yl)carbonyl]-N,N-dimethylimidazo[1,2-α]pyridin-6-amine] | 6.7
2 | O=C(c1cn2cc(-c3nc[nH]n3)ccc2n1)N1CCc2ccccc21 [Compound 35, 2-(2,3-Dihydro-1H-indol-1-ylcarbonyl)-6-(1H-1,2,4-triazol-3-yl)imidazo[1,2-α]pyridine] | 11
3 | O=C(c1cn2cc(-c3c[nH]cn3)ccc2n1)N1CCc2ccccc21 [Compound 43, 2-(2,3-Dihydro-1H-indol-1-ylcarbonyl)-6-(1H-imidazol-4-yl)imidazo[1,2-α]pyridine] | 2.4

Next, values leading:

Row | EC50 [nM] | SMILES
4 | 5 | O=C(c1cn2cc(-c3cccc(CO)c3)ccc2n1)N1CC=CC1 [Compound 7, {3-[2-(2,5-Dihydro-1H-pyrrol-1-ylcarbonyl)imidazo[1,2-α]pyridin-6-yl]phenyl}methanol]
5 | 0.8 | O=C(c1cn2cc(-c3cccc(CO)c3)ccc2n1)N1CC=CCC1 [Compound 8, {3-[2-[(1,2,5,6-Tetrahydropyridin-1-yl)carbonyl]imidazo[1,2-α]pyridin-6-yl]phenyl}methanol]
6 | 56 | O=C(c1cn2cc(-c3ncco3)ccc2n1)N1CC=CCC1 [Compound 30, 6-(Oxazol-2-yl)-2-[(1,2,5,6-tetrahydropyridin-1-yl)carbonyl]imidazo[1,2-α]pyridine]

— patent publication US20100317656A1, “IMIDAZO[1,2-a]PYRIDINE-2-CARBOXAMIDE DERIVATIVES, PREPARATION THEREOF AND APPLICATION THEREOF IN THERAPEUTICS” (SANOFI-AVENTIS, priority 2008, published 2010)
